Assay results as given in patent US20040258773A1, “Composition and methods for treating subjects with hyperglycemia” (priority 2004, published 2004).

Tested on: 3T3-L1 adipocytes
Assay: Glucose uptake activity assay (2-deoxy-D-[3H]glucose uptake)
Assay type: cell-based
Conditions: 12-well plates, 15 min incubation, FIG. 1
Description: Glucose uptake activity assay. Glucose uptake activity was analyzed by measuring the uptake of 2-deoxy-D-[^3H] glucose as described previously (Sakoda, H, et al. (1999) Diabetes 48: 1365-1371; Garcia de Herreros, A. & Birnbaum, M. J. (1989) J. Biol. Chem. 264: 19994-19999). Briefly, confluent 3T3-L1 adipocytes grown in 12-well plates were washed twice with serum-free DMEM and incubated with 1 mL of the same medium at 37° C. for 2 h. The cells were washed 3 times with Krebs-Ringer-Hepes (KRP) buffer and incubated with 0.9 mL KRP buffer at 37° C. for 30 min. Insulin and/or BE were then added and adipocytes were incubated at 37° C. for 15 min. Glucose uptake was initiated by the addition of 0.1 ml, KRP buffer and 3.7×10^7 Bq/L 2-deoxy-D-[^3H] glucose and 1 mmol/L glucose as final concentrations. After 10 min, glucose uptake was terminated by washing the cells 3 times with cold PBS. The cells were lysed with 0.7 mL of 1% Triton X-100 at 37° C. for 20 min. The radioactivity retained by the cell lysates was determined by a scintillation counter. Nonspecific glucose uptake was measured at a glucose concentration of 100 mmol/L. Assay data were statistically analyzed using the paired Student's t-test, with P<0.05 set as the significant difference level.

How did the “stimulation of glucose uptake in 3T3-L1 adipocytes” value turn out when “insulin: Bovine insulin from Sigma Chemical, positive control” was run?
The value was “could stimulate glucose uptake”.
